Experimental data: the NIST ThermoML archive (doi:10.1021/acs.jced.8b00132)
Where “and” joins values, the source holds several entries; their conditions need not be identical. Identical values can stand only once.

O=C(C(F)(F)C(F)(F)F)C(F)(C(F)(F)F)C(F)(F)F [dodecafluoro-2-methylpentan-3-one]
Settings | thermal conductivity
389.64 K, 670 kPa, Liquid, transient hot wire | 0.04285 W/m/K
389.64 K, 9501 kPa, Liquid, transient hot wire | 0.04974 W/m/K
389.64 K, 9504 kPa, Liquid, transient hot wire | 0.04979 W/m/K
389.65 K, 670 kPa, Liquid, transient hot wire | 0.04282 W/m/K
389.65 K, 53766 kPa, Liquid, transient hot wire | 0.06802 W/m/K
389.66 K, 53751 kPa, Liquid, transient hot wire | 0.06802 W/m/K
389.7 K, 21438 kPa, Liquid, transient hot wire | 0.05608 W/m/K
389.7 K, 21439 kPa, Liquid, transient hot wire | 0.05607 W/m/K
389.72 K, 40368 kPa, Liquid, transient hot wire | 0.0636 W/m/K
389.72 K, 67805 kPa, Liquid, transient hot wire | 0.07218 W/m/K
389.72 K, 67826 kPa, Liquid, transient hot wire | 0.07217 W/m/K
389.73 K, 40356 kPa, Liquid, transient hot wire | 0.06359 W/m/K
389.74 K, 5608 kPa, Liquid, transient hot wire | 0.04712 W/m/K
389.75 K, 14721 kPa, Liquid, transient hot wire | 0.0528 W/m/K
389.76 K, 2811 kPa, Liquid, transient hot wire | 0.04489 W/m/K
389.76 K, 14719 kPa, Liquid, transient hot wire | 0.05276 W/m/K
389.77 K, 2810 kPa, Liquid, transient hot wire | 0.04491 W/m/K
389.79 K, 29871 kPa, Liquid, transient hot wire | 0.0597 W/m/K
389.8 K, 29864 kPa, Liquid, transient hot wire | 0.05959 W/m/K
389.8 K, 53730 kPa, Liquid, transient hot wire | 0.06799 W/m/K
389.81 K, 53715 kPa, Liquid, transient hot wire | 0.06798 W/m/K
389.83 K, 9502 kPa, Liquid, transient hot wire | 0.0497 W/m/K
389.83 K, 9503 kPa, Liquid, transient hot wire | 0.04976 W/m/K
389.84 K, 669 kPa, Liquid, transient hot wire | 0.04282 W/m/K and 0.04287 W/m/K
389.85 K, 670 kPa, Liquid, transient hot wire | 0.0428 W/m/K and 0.04285 W/m/K
389.87 K, 21435 kPa, Liquid, transient hot wire | 0.05603 W/m/K
389.87 K, 67783 kPa, Liquid, transient hot wire | 0.07218 W/m/K
389.88 K, 40337 kPa, Liquid, transient hot wire | 0.06356 W/m/K
389.88 K, 40347 kPa, Liquid, transient hot wire | 0.06347 W/m/K
389.88 K, 67759 kPa, Liquid, transient hot wire | 0.07209 W/m/K
389.94 K, 5610 kPa, Liquid, transient hot wire | 0.04715 W/m/K
389.95 K, 5610 kPa, Liquid, transient hot wire | 0.04716 W/m/K
389.95 K, 14717 kPa, Liquid, transient hot wire | 0.05274 W/m/K
389.96 K, 2811 kPa, Liquid, transient hot wire | 0.04493 W/m/K
389.96 K, 14717 kPa, Liquid, transient hot wire | 0.05275 W/m/K
389.97 K, 2812 kPa, Liquid, transient hot wire | 0.04492 W/m/K
389.97 K, 29861 kPa, Liquid, transient hot wire | 0.05954 W/m/K
389.97 K, 29862 kPa, Liquid, transient hot wire | 0.05955 W/m/K
389.97 K, 53688 kPa, Liquid, transient hot wire | 0.06792 W/m/K
389.97 K, 53707 kPa, Liquid, transient hot wire | 0.06846 W/m/K
390.03 K, 9500 kPa, Liquid, transient hot wire | 0.04976 W/m/K
390.03 K, 9503 kPa, Liquid, transient hot wire | 0.04976 W/m/K
390.06 K, 669 kPa, Liquid, transient hot wire | 0.0428 W/m/K
390.06 K, 670 kPa, Liquid, transient hot wire | 0.04284 W/m/K and 0.04279 W/m/K
390.06 K, 21434 kPa, Liquid, transient hot wire | 0.05598 W/m/K
390.06 K, 21436 kPa, Liquid, transient hot wire | 0.056 W/m/K
390.06 K, 40331 kPa, Liquid, transient hot wire | 0.0635 W/m/K
390.06 K, 40336 kPa, Liquid, transient hot wire | 0.06349 W/m/K
390.15 K, 5609 kPa, Liquid, transient hot wire | 0.04709 W/m/K and 0.04706 W/m/K
390.15 K, 14714 kPa, Liquid, transient hot wire | 0.05264 W/m/K
390.15 K, 29850 kPa, Liquid, transient hot wire | 0.0595 W/m/K
390.16 K, 14712 kPa, Liquid, transient hot wire | 0.05268 W/m/K
390.16 K, 29857 kPa, Liquid, transient hot wire | 0.0595 W/m/K
390.18 K, 2812 kPa, Liquid, transient hot wire | 0.04486 W/m/K
390.19 K, 2812 kPa, Liquid, transient hot wire | 0.04487 W/m/K
390.24 K, 9499 kPa, Liquid, transient hot wire | 0.04963 W/m/K
390.25 K, 9501 kPa, Liquid, transient hot wire | 0.04969 W/m/K
390.25 K, 21437 kPa, Liquid, transient hot wire | 0.05589 W/m/K
390.26 K, 21435 kPa, Liquid, transient hot wire | 0.05593 W/m/K
390.28 K, 669 kPa, Liquid, transient hot wire | 0.04276 W/m/K and 0.04278 W/m/K
390.29 K, 670 kPa, Liquid, transient hot wire | 0.04279 W/m/K and 0.04277 W/m/K
390.36 K, 14712 kPa, Liquid, transient hot wire | 0.05264 W/m/K
390.36 K, 14714 kPa, Liquid, transient hot wire | 0.05262 W/m/K
390.37 K, 5610 kPa, Liquid, transient hot wire | 0.04711 W/m/K
390.37 K, 5611 kPa, Liquid, transient hot wire | 0.04706 W/m/K
390.42 K, 2814 kPa, Liquid, transient hot wire | 0.04483 W/m/K
390.42 K, 2815 kPa, Liquid, transient hot wire | 0.04488 W/m/K
390.46 K, 9497 kPa, Liquid, transient hot wire | 0.04961 W/m/K
390.46 K, 9500 kPa, Liquid, transient hot wire | 0.04968 W/m/K
390.52 K, 669 kPa, Liquid, transient hot wire | 0.04282 W/m/K and 0.04283 W/m/K
390.53 K, 670 kPa, Liquid, transient hot wire | 0.04282 W/m/K and 0.04286 W/m/K
390.57 K, 5608 kPa, Liquid, transient hot wire | 0.04706 W/m/K
390.6 K, 5609 kPa, Liquid, transient hot wire | 0.04709 W/m/K
390.66 K, 2816 kPa, Liquid, transient hot wire | 0.04487 W/m/K
390.66 K, 2817 kPa, Liquid, transient hot wire | 0.04488 W/m/K
390.76 K, 669 kPa, Liquid, transient hot wire | 0.04287 W/m/K
390.78 K, 669 kPa, Liquid, transient hot wire | 0.04304 W/m/K
402.21 K, 448 kPa, Gas, hot wire | 0.02088 W/m/K
402.23 K, 447 kPa, Gas, hot wire | 0.02061 W/m/K
402.27 K, 307 kPa, Gas, hot wire | 0.02002 W/m/K and 0.01983 W/m/K
402.31 K, 156 kPa, Gas, hot wire | 0.01939 W/m/K
402.31 K, 157 kPa, Gas, hot wire | 0.01939 W/m/K
402.33 K, 446 kPa, Gas, hot wire | 0.02071 W/m/K
402.34 K, 445 kPa, Gas, hot wire | 0.02068 W/m/K
